Source: patent US10947252B2, “Inhibitors of KEAP1-Nrf2 protein-protein interaction” (Janssen Pharmaceutica NV, priority 2018, dated 2021)

Assays:
[1] = molecular target: Kelch domain of human KEAP1 (321-624 aa) (Homo sapiens (Human), UniProt Q14145); assay: KEAP1 KELCH ThermoFluor binding assay; conditions: KEAP Kelch […], 1,8-ANS, pH 7.0, average of results obtained, read-out: Tf Kd;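 also: Ligand-induced melting temperature shift of E. coli-expressed KEAP1 Kelch protein, Kd estimated from concentration-response curves of ΔTm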
From the text: The shift in the melting point described as a ΔTm is proportional to the concentration and affinity of the ligand. The compound potency may be compared as a rank order of either ΔTm values at a single compound concentration or in terms of KD values, estimated from concentration response curves.
The protein was expressed in E. coli with 6His tag that was cleaved prior to receipt for use.
Protein (KEAP Kelch) and compound solutions were dispensed into black 384-well polypropylene PCR microplates (Abgene) and overlayed with silicone oil (1 μL, Fluka, type DC 200) to prevent evaporation.

[2] = tested on: Glo-Response ARE-luc2P HEK293 cell line; assay: ARE luciferase reporter cell-based assay; conditions: Homo sapiens, HEK293, 24 h, average of results obtained;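 also: luciferase signal tracks Nrf2 activation of the ARE once compounds disrupt KEAP1-Nrf2 binding, read with One-Glo reagent, DMSO serving as low control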

Chain of Kelch domain of human KEAP1 (321-624 aa) (Q14145 321-624): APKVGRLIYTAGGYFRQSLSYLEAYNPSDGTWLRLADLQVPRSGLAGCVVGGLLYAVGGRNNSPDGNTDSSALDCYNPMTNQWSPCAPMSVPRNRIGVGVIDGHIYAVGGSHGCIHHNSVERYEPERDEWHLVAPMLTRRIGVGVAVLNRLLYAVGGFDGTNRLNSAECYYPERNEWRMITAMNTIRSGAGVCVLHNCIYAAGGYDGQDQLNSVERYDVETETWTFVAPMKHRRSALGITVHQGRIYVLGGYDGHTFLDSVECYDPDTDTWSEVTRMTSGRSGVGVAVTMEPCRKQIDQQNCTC

Row | SMILES | Kd [1] [nM] | EC50 [2] [nM]
1 | CCn1nnc2c(C)c([C@H](c3cc(CN4CC5(CC5)Oc5ncc(C)cc5S4(=O)=O)c(C)cn3)C(C)(C)C(=O)O)ccc21 (single isomer, unassigned) [Example 594, (*S)-3-(1-Ethyl-4-methyl-1H-benzo[d][1,2,3]triazol-5-yl)-2,2-dimethyl-3-(5-methyl-4-((8′-methyl-1′,1′-dioxidospiro[cyclopropane-1,4′-pyrido[2,3-b][1,4,5]oxathiazepin]-2′(3′H)-yl)methyl)pyridin-2-yl)propanoic Acid] | < 1 | 3.3
2 | Cc1ccc(C(CC(=O)O)c2ccn3c(C(F)F)nnc3c2C)cc1CN1C[C@@H]2CCCCN2c2ncccc2S1(=O)=O (stereo in doubt) [Example 446, 3-(3-(Difluoromethyl)-8-methyl-[1,2,4]triazolo[4,3-a]pyridin-7-yl)-3-(3-(((*S)-5,5-dioxido-7,7a,8,9,10,11-hexahydro-6H-dipyrido[2,1-d:2′,3′-f][1,2,5]thiadiazepin-6-yl)methyl)-4-methylphenyl)propanoic Acid] | < 1 | 23.8
3 | Cc1cnc2c(c1)S(=O)(=O)N(Cc1cc([C@H](c3ccn4c(C(F)F)nnc4c3C)C(C)(C)C(=O)O)ncc1C)CC1(CC1)O2 (single isomer, unassigned) [Example 333, (*R)-3-(3-(difluoromethyl)-8-methyl-[1,2,4]triazolo[4,3-a]pyridin-7-yl)-2,2-dimethyl-3-(5-methyl-4-((8′-methyl-1′,1′-dioxidospiro[cyclopropane-1,4′-pyrido[2,3-b][1,4,5]oxathiazepin]-2′(3′H)-yl)methyl)pyridin-2-yl)propanoic Acid] | 1720 | 3980
4 | Cc1ccc(C(CC(=O)O)c2ccc3c(nnn3C)c2C(F)F)cc1CN1CC2CCCN2c2ncccc2S1(=O)=O (stereo not drawn) [Example 71] | 2.6 | 1160
5 | CCn1nnc2c(C)c([C@@H](CC(=O)O)c3ccc(C)c(CN4CC5(COC5)Oc5ccccc5S4(=O)=O)n3)ccc21 (single isomer, unassigned) [Example 239, (*R)-3-(6-((1,1-Dioxidospiro[benzo[b][1,4,5]oxathiazepine-4,3′-oxetan]-2(3H)-yl)methyl)-5-methylpyridin-2-yl)-3-(1-ethyl-4-methyl-1H-benzo[d][1,2,3]triazol-5-yl)propanoic Acid] | 1.9 | 44
6 | Cc1cnc2c(c1)S(=O)(=O)N(Cc1cc([C@@H](c3ccn4c(C(F)(F)F)nnc4c3C)C(C)(C)C(=O)O)ncc1C)CC1(CCOCC1)O2 (single isomer, unassigned) [Example 591, (*S)-2,2-Dimethyl-3-(8-methyl-3-(trifluoromethyl)-[1,2,4]triazolo[4,3-a]pyridin-7-yl)-3-(5-methyl-4-((8′-methyl-1′,1′-dioxido-2,3,5,6-tetrahydrospiro[pyran-4,4′-pyrido[2,3-b][1,4,5]oxathiazepin]-2′(3′H)-yl)methyl)pyridin-2-yl)propanoic Acid] | < 1 | 26.1
7 | CCn1nnc2c(C)c([C@H](CC(=O)O)c3ccc(C)c(CN4CC5(CCOCC5)Oc5ccc(F)cc5S4(=O)=O)n3)ccc21 (single isomer, unassigned) [Example 418, (*S)-3-(1-ethyl-4-methyl-1H-benzo[d][1,2,3]triazol-5-yl)-3-(6-((8-fluoro-1,1-dioxido-2′,3′,5′,6′-tetrahydrospiro[benzo[b][1,4,5]oxathiazepine-4,4′-pyran]-2(3H)-yl)methyl)-5-methylpyridin-2-yl)propanoic Acid] | < 1 | 0.96
8 | Cc1ccc(C(CC(N)=O)c2ccn3c(C(F)(F)F)nnc3c2C)cc1CN1C[C@@H]2CCCCN2c2ncccc2S1(=O)=O (stereo in doubt) [Example 547, 3-(3-(((*S)-5,5-Dioxido-7,7a,8,9,10,11-hexahydro-6H-dipyrido[2,1-d:2′,3′-f][1,2,5]thiadiazepin-6-yl)methyl)-4-methylphenyl)-3-(8-methyl-3-(trifluoromethyl)-[1,2,4]triazolo[4,3-a]pyridin-7-yl)propanamide] | 602 | 9640
9 | Cc1ccc([C@@H](CC(=O)O)c2ccn3c(C(F)(F)F)nnc3c2C)cc1CN1C[C@@H]2CCCCN2c2ncccc2S1(=O)=O (single isomer, unassigned) [Example 291, (*R)-3-(3-(((*S)-5,5-Dioxido-7,7a,8,9,10,11-hexahydro-6H-dipyrido[2,1-d:2′,3′-][1,2,5]thiadiazepin-6-yl)methyl)-4-methylphenyl)-3-(8-methyl-3-(trifluoromethyl)-[1,2,4]triazolo[4,3-a]pyridin-7-yl)propanoic Acid] | < 1 | 86.8
10 | Cc1ccc([C@H](CC(=O)O)c2ccn3c(C(F)(F)F)nnc3c2C)cc1CN1CC2(CC2)Oc2nc(NCCN3CCOCC3)ccc2S1(=O)=O (single isomer, unassigned) [Example 111, (*S)-3-(4-Methyl-((7′-((2-morpholinoethyl)amino)-1′,1′-dioxidospiro[cyclopropane-1,4′-pyrido[2,3-b][1,4,5]oxathiazepin]-2′(3′H)-yl)methyl)-4-methylphenyl)-3-(8-methyl-3-(trifluoromethyl)-[1,2,4 [triazolo[4,3-a]pyridine-7-yl)propanoic Acid] | < 1 | 588
11 | Cc1ccc([C@H](CC(=O)O)c2ccn3c(C(F)(F)F)nnc3c2C)cc1CN1C[C@@H]2CCCCN2c2ncc(C#N)cc2S1(=O)=O (single isomer, unassigned) [Example 10, (*S)-3-(3-(((*S)-3-Cyano-5,5-dioxido-7,7a,8,9,10,11-hexahydro-6H-dipyrido[2,1-d:2′,3′-f][1,2,5]thiadiazepin-6-yl)methyl)-4-methylphenyl)-3-(8-methyl-3-(trifluoromethyl)-[1,2,4]triazolo[4,3-a]pyridin-7-yl)propanoic Acid] | < 1 | 5.2
12 | Cc1ccc(C(CC(=O)O)c2ccn3c(C(F)(F)F)nnc3c2C)nc1CN1CC2(CC2)Oc2ncccc2S1(=O)=O (racemic) [Example 481, (R/S)-3-(6-((1′,1′-Dioxidospiro[cyclopropane-1,4′-pyrido[2,3-b][1,4,5]oxathiazepin]-2′(3′H)-yl)methyl)-5-methylpyridin-2-yl)-3-(8-methyl-3-(trifluoromethyl)-[1,2,4]triazolo[4,3-a]pyridin-7-yl)propanoic Acid] | < 1 | 1290
13 | Cc1ccc([C@@H](c2ccn3c(C(F)(F)F)nnc3c2C)C(C)(C)C(=O)O)cc1CN1CC2(CCOCC2)Oc2nc(OCCN3CCOCC3)ccc2S1(=O)=O (single isomer, unassigned) [Example 47, (*S)-2,2-Dimethyl-3-(4-methyl-3-((7′-(2-morpholinoethoxy)-1′,1′-dioxido-2,3,5,6-tetrahydrospiro[pyran-4,4′-pyrido[2,3-b][1,4,5]oxathiazepin]-2′(3′H)-yl)methyl)phenyl)-3-(8-methyl-3-trifluoromethyl)-[1,2,4]triazolo[4,3-a]pyridine-7-yl)propanoic Acid] | < 1 | 17.9
14 | Cc1ccc([C@H](CC(=O)O)c2ccn3c(C4CC4)nnc3c2C)cc1CN1CC2(CC2)Oc2ncc(F)cc2S1(=O)=O (single isomer, unassigned) [Example 230, (*S)-3-(3-Cyclopropyl-8-methyl-[1,2,4]triazolo[4,3-a]pyridin-7-yl)-3-(3-((8′-fluoro-1′,1′-dioxidospiro[cyclopropane-1,4′-pyrido[2,3-b][1,4,5]oxathiazepin]-2′(3′H)-yl)methyl)-4-methylphenyl)propanoic Acid] | < 1 | 480
15 | Cc1ccc(C(CC(=O)O)c2ccn3c(C(F)(F)F)nnc3c2C)cc1CN1CC2(COC2)Oc2ncccc2S1(=O)=O (stereo not drawn) [Example 259, 3-(3-((1′,1′-Dioxidospiro[oxetane-3,4′-pyrido[2,3-b][1,4,5]oxathiazepin]-2′(3′H)-yl)methyl)-4-methylphenyl)-3-(8-methyl-3-(trifluoromethyl)-[1,2,4]triazolo[4,3-a]pyridin-7-yl)propanoic Acid] | < 1 | 201
16 | Cc1ccc([C@H](CC(=O)O)c2ccn3c(C(F)(F)F)nnc3c2C)cc1CN1C[C@@H]2CCC(F)(F)CN2c2ncccc2S1(=O)=O (single isomer, unassigned) [Example 453, (*S)-3-(3-(((*S)-10,10-Difluoro-5,5-dioxido-7,7a,8,9,10,11-hexahydro-6H-dipyrido[2,1-d:2′,3′-f][1,2,5]thiadiazepin-6-yl)methyl)-4-methylphenyl)-3-(8-methyl-3-(trifluoromethyl)-[1,2,4]triazolo[4,3-a]pyridin-7-yl)propanoic Acid] | < 1 | 162
17 | Cc1ccc2c(n1)OC1(CC1)CN(Cc1cc([C@H](CC(=O)O)c3ccn4c(C(F)(F)F)nnc4c3C)ccc1C)S2(=O)=O (single isomer, unassigned) [Example 538, (*S)-3-(4-Methyl-3-((7′-methyl-1′,1′-dioxidospiro[cyclopropane-1,4′-pyrido[2,3-b][1,4,5]oxathiazepin]-2′(3′H)-yl)methyl)phenyl)-3-(8-methyl-3-(trifluoromethyl)-[1,2,4]triazolo[4,3-a]pyridin-7-yl)propanoic Acid] | < 1 | 58.9
18 | Cc1ccc([C@H](c2ccn3c(C(F)(F)F)nnc3c2C)C(C)(C)C(=O)O)cc1CN1CC2(CCNCC2)Oc2ncccc2S1(=O)=O (single isomer, unassigned) [Example 337, (*R)-3-(3-((1′,1′-Dioxidospiro[piperidine-4,4′-pyrido[2,3-b][1,4,5]oxathiazepin]-2′(3′H)-yl)methyl)-4-methylphenyl)-2,2-dimethyl-3-(8-methyl-3-(trifluoromethyl)-[1,2,4]triazolo[4,3-a]pyridin-7-yl)propanoic Acid] | > 10000 | > 20
